These results are taken from publication PMC10590383, “Repurposing conformational changes in ANL superfamily enzymes to rapidly generate biosensors for organic and amino acids” (Nature Communications, 2023).

Common to all, as to test: Fluorescence dose-response of purified binding-pocket-engineered sensors (0.75 uM) in 100 mM Tris-HCl pH 7.5, room temperature, 1 mM ATP, 2.5 mM MgCl2, excitation 460 or 480 nm, emission 510 nm; logistic five-parameter fit.
Assay type in all cases: biochemical
Conditions in all cases: n = 3

For one experiment, the target named is T1, GECFINDER-Tyr (Aneurinibacillus migulanus, UniProt P0C061, W239S).
T1 construct: gene grsA
As for the experimental part: (§1) Fig. 4 Engineering ligand specificity of GrsA-PheA for generating […]s. a The selectivity-conferring code of Phe and Leu A domains. b–f Dose–response curve of purified […]s with increasing concentrations of ligands in 100 mM Tris-HCl buffer (pH=7.5). All data shown are means ± S.D. (n = 3 biologically independent samples). g A series of […] reactions was tested to show the […]’s specificity with 20 proteinogenic amino acids. The values on the heatmap represent the ΔF/F0 value normalized to each […]’s maximal ΔF/F0 value ((ΔF/F0)/maximal ΔF/F0). The concentrations of 20 amino acids were 100 μM. The color indicates the average value of three independent biological replicates after 15 min. All data shown are means ± S.D. (n = 3 biologically independent samples). Source data are provided as a Source data file.
(§2) The study conducted dose–response curve, substrate specificity, and fluorescent spectrum analyses in 100-mM Tris buffer (pH = 7.5), while pH stability experiments were performed in 100-mM Tris buffer at three different pH values (6.5, 7.5, and 8.5) at room temperature. […] protein at a concentration of 0.75 μM, various small molecule concentrations, 1 mM ATP, and 2.5 mM MgCl2 were used in the experiments. Fluorescent signals were detected using a Microplate Reader (Synergy H4, Bio Tek) at an excitation/emission wavelength of 460 nm/510 nm or 480 nm/510 nm. The dose-response curve was determined immediately after the addition of the analyte. The total duration of the measurement was 15 min, with readings taken at one-minute intervals. The dose-response curve was plotted using the fluorescence values obtained after achieving stability in the fluorescence signal. The dose-response curves were fitted using the logistic model LOGISTIC5 available in Origin 2021, which could provide a more adequate fit to asymmetric dose-response data[62],[63]. Excitation spectra were scanned from 300 to 540 nm with a step size of 5 nm, and the emission wavelength was set to 560 nm. Emission spectra were scanned from 470 to 700 nm with a step size of 5 nm, and the excitation wavelength was set to 450 nm. The thermal stability of […] was analyzed using the UNcle multifunctional protein stability analysis system. Measurements were performed in 20 mM MOPS buffer with 2 mM DTT at a sample concentration of 1 mg/mL. Absolute fluorescence quantum yields were measured using an absolute photoluminescence quantum yield spectrometer (FS5, Edinburgh).

A further experiment deals with T2, GECFINDER-Leu4 (Aneurinibacillus migulanus, UniProt P0C061, A301G/I277L/S447N/T278L).
T2 construct: gene grsA
As for the experimental part:
as §1, §2

The next experiment deals with T3, GECFINDER-Leu2 (Aneurinibacillus migulanus, UniProt P0C061, A301G/I277L/T278L).
T3 construct: gene grsA
The method, then: as §1, §2

Another experiment has as its target T4, GECFINDER-Leu3 (Aneurinibacillus migulanus, UniProt P0C061, A301G/S447N/T278L).
T4 construct: gene grsA
As for the experimental part:
as §1, §2

Another experiment addresses GECFINDER-SβF. The method, then:
as §1, §2

With `N[C@@H](Cc1ccccc1)C(=O)O` [Phe, phenylalanine], the EC50 (in general, the concentration giving half of the maximal effect) on GECFINDER-Tyr was 258 ± 37.3 µM; at GECFINDER-Leu4, 158 ± 22.6 µM; at GECFINDER-Leu2, 606 ± 407 µM; on GECFINDER-Leu3, 392 ± 51.8 µM; at GECFINDER-SβF, 234 ± 23.7 µM.
